Assay results from ChEMBL document CHEMBL4837249, “Discovery of Potent Antiallergic Agents Based on an o-Aminopyridinyl Alkynyl Scaffold” (J Med Chem, 2021).

Legend:
RBL-2H3 = experiment: Antiallergic activity against anti-DNP-IgE sensitized rat RBL-2H3 cells assessed as […] of degranulation by measuring beta-hexosaminidase release using P-nitrophenyl-N-acetyl-D-glucosamide as substrate measured after 1 hr by microplate reader; type: functional, cell-based; conditions: RBL-2H3, 1 h
[1] = molecular target: Tyrosine-protein kinase ABL1 (Homo sapiens, UniProt P00519); experiment: Inhibition of human recombinant ABL1 using ATP/Ulight-TK peptide at 5 nM incubated for 15 mins relative to control
[2] = molecular target: T1, Tyrosine-protein kinase Fyn (Homo sapiens, UniProt P06241); experiment: Inhibition of human recombinant Fyn (218 to end) at 5 nM incubated for 15 mins relative to control
T1 sequence (P06241 2-537 limits assumed): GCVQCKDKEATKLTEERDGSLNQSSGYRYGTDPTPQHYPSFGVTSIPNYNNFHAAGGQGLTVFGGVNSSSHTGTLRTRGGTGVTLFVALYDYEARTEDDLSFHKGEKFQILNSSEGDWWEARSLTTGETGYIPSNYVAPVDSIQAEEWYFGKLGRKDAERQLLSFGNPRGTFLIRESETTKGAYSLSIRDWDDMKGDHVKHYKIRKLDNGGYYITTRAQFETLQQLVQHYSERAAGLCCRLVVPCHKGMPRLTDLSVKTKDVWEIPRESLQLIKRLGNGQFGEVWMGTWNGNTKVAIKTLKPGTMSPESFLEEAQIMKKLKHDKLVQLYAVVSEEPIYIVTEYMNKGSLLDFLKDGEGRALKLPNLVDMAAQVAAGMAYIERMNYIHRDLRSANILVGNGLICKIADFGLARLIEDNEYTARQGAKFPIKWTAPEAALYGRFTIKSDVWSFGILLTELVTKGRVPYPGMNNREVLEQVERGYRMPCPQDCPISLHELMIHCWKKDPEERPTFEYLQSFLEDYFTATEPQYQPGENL

[3] = molecular target: T2, Tyrosine-protein kinase HCK (Homo sapiens, UniProt P08631); experiment: Inhibition of human recombinant HCK (230 to 497) at 5 nM by radiometric scintillation counting analysis relative to control
T2 sequence (P08631 2-526 limits assumed): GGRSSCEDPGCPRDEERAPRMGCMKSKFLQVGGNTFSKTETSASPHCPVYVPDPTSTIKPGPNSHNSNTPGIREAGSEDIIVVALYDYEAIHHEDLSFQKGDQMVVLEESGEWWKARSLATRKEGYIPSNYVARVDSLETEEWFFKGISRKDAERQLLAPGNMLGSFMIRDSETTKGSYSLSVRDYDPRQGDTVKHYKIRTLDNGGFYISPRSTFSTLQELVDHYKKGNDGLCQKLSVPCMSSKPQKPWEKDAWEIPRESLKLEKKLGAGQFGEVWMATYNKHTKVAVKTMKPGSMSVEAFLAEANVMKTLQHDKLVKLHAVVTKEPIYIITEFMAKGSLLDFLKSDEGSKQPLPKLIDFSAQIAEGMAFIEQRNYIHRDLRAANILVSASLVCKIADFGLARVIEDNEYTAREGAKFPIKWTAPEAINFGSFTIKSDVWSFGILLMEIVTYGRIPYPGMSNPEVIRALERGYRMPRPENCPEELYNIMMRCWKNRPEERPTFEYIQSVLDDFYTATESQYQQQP

[4] = molecular target: T3, Tyrosine-protein kinase Lck (Homo sapiens, UniProt P06239); experiment: Inhibition of human full length recombinant LCK at 5 nM by radiometric scintillation counting analysis relative to control
[5] = molecular target: Platelet-derived growth factor receptor alpha (Homo sapiens) (UniProt P16234); experiment: Inhibition of human recombinant PDGFRalpha (550 to end) at 5 nM by radiometric scintillation counting analysis relative to control
Platelet-derived growth factor receptor alpha (Homo sapiens), sequence (P16234 whole entry): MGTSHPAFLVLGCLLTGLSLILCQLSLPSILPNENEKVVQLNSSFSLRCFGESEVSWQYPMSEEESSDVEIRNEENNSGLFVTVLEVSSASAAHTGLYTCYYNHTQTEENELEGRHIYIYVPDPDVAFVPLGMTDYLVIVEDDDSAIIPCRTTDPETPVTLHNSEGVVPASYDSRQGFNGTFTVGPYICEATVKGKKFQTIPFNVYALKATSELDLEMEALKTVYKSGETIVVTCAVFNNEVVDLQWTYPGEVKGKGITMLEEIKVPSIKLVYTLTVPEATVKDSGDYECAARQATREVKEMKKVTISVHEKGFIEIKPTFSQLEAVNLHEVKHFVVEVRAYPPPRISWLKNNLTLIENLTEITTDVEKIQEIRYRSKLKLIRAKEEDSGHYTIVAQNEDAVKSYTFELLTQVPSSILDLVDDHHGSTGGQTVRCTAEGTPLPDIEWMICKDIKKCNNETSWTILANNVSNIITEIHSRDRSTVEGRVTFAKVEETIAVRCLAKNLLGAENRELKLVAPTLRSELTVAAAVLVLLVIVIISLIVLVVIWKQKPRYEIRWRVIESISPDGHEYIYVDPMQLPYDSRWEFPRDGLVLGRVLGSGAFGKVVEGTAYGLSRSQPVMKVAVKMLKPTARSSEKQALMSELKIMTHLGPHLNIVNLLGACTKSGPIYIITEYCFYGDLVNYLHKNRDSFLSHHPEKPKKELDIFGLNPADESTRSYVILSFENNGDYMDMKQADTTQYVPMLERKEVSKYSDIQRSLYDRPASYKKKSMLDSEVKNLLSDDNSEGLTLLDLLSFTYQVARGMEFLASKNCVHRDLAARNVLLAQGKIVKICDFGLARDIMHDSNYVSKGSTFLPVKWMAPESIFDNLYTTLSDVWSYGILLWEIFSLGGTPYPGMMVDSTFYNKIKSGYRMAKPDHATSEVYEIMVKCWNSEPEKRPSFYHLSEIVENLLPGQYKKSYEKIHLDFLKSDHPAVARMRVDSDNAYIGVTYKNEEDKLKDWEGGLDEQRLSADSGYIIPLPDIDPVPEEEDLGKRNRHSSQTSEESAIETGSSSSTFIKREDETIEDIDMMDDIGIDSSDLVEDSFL

[6] = molecular target: Protein-tyrosine kinase 6 (Homo sapiens) (UniProt Q13882); experiment: Inhibition of human recombinant BRK (174 to 734) at 50 nM by radiometric scintillation counting analysis relative to control
[7] = molecular target: Mast/stem cell growth factor receptor Kit (Homo sapiens) (UniProt P10721); experiment: Inhibition of human recombinant c-Kit at 50 nM by radiometric scintillation counting analysis relative to control
Mast/stem cell growth factor receptor Kit (Homo sapiens), sequence (P10721 whole entry): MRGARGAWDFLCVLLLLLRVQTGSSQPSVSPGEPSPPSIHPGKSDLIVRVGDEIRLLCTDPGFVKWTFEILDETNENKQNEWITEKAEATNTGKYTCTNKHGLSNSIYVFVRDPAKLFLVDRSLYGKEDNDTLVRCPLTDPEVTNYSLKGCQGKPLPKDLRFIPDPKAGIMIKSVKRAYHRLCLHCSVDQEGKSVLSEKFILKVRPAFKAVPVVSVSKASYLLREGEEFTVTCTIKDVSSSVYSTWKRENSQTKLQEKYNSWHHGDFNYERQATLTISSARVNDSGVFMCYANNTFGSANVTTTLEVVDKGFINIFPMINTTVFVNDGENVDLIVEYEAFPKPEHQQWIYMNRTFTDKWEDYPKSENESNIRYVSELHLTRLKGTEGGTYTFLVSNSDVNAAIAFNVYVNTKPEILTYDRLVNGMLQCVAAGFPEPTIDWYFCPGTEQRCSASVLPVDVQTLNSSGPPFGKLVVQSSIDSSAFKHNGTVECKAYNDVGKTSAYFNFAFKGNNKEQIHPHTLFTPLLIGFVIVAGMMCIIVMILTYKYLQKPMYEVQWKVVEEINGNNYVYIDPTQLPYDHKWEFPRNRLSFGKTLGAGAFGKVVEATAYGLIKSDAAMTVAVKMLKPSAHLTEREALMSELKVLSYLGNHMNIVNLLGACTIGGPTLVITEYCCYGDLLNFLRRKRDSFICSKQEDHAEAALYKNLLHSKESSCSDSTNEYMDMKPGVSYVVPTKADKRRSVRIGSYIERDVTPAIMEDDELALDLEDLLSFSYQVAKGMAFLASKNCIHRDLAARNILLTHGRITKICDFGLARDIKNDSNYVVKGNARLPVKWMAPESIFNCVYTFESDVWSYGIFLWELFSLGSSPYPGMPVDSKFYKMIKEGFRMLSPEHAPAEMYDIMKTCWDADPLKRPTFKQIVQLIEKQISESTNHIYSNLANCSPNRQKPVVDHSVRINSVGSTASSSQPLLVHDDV

[8] = molecular target: Tyrosine-protein kinase Fgr (Homo sapiens, UniProt P09769); experiment: Inhibition of human recombinant FGR (456 to 770) at 50 nM by radiometric scintillation counting analysis relative to control
[9] = molecular target: T4, Tyrosine-protein kinase Lyn (Homo sapiens, UniProt P07948); experiment: Inhibition of human full length recombinant LYN at 50 nM by radiometric scintillation counting analysis relative to control
[10] = molecular target: T5, Tyrosine-protein kinase TXK (Homo sapiens) (UniProt P42681); experiment: Inhibition of human recombinant […] (256 to end) at 50 nM by radiometric scintillation counting analysis relative to control
T5 sequence (whole entry): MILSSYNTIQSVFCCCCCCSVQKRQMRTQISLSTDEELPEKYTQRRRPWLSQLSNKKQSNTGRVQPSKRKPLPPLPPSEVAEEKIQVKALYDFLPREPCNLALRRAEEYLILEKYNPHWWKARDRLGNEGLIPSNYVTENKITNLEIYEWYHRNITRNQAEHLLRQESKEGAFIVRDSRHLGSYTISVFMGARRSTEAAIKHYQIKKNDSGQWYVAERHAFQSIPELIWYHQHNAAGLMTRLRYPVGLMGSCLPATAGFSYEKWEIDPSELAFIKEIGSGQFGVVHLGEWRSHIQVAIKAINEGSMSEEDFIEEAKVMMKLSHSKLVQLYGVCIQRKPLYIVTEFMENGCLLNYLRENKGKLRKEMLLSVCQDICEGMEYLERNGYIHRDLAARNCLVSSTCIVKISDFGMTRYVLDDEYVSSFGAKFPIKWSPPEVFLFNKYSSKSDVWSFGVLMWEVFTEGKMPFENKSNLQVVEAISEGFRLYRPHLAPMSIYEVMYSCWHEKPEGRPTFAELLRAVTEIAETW

[11] = molecular target: Tyrosine-protein kinase Yes (Homo sapiens, UniProt P07947); experiment: Inhibition of human full length recombinant Yes at 50 nM by radiometric scintillation counting analysis relative to control
[12] = molecular target: Tyrosine-protein kinase Blk (Homo sapiens, UniProt P51451); experiment: Inhibition of human full length recombinant BLK at 500 nM by radiometric scintillation counting analysis relative to control
Tyrosine-protein kinase Blk, sequence (P51451 2-505 limits assumed): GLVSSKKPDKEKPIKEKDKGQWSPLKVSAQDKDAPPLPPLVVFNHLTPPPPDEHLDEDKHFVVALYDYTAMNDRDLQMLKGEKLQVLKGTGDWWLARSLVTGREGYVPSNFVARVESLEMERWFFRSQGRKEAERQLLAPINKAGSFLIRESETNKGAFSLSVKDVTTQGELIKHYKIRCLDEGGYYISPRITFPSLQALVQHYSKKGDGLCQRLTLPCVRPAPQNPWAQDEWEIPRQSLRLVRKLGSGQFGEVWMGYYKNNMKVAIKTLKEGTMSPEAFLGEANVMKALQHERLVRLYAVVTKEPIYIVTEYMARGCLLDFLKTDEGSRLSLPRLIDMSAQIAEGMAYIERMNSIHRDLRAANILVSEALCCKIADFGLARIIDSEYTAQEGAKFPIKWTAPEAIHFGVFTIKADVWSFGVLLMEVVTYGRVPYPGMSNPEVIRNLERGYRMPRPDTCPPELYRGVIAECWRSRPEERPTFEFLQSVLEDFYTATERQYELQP

[13] = molecular target: Protein-tyrosine kinase 6 (Homo sapiens) (UniProt Q13882); experiment: Inhibition of human recombinant BRK (174 to 734) at 500 nM by radiometric scintillation counting analysis relative to control
[14] = molecular target: T1, Tyrosine-protein kinase Fyn; experiment: Inhibition of human recombinant Fyn (218 to end) at 500 nM incubated for 15 mins relative to control
[15] = molecular target: T2, Tyrosine-protein kinase HCK; experiment: Inhibition of human recombinant HCK (230 to 497) at 500 nM by radiometric scintillation counting analysis relative to control
[16] = molecular target: T6, Inhibitor of nuclear factor kappa-B kinase subunit alpha (Homo sapiens) (UniProt O15111); experiment: Inhibition of human full length recombinant IKKalpha at 500 nM by radiometric scintillation counting analysis relative to control
T6 sequence (whole entry): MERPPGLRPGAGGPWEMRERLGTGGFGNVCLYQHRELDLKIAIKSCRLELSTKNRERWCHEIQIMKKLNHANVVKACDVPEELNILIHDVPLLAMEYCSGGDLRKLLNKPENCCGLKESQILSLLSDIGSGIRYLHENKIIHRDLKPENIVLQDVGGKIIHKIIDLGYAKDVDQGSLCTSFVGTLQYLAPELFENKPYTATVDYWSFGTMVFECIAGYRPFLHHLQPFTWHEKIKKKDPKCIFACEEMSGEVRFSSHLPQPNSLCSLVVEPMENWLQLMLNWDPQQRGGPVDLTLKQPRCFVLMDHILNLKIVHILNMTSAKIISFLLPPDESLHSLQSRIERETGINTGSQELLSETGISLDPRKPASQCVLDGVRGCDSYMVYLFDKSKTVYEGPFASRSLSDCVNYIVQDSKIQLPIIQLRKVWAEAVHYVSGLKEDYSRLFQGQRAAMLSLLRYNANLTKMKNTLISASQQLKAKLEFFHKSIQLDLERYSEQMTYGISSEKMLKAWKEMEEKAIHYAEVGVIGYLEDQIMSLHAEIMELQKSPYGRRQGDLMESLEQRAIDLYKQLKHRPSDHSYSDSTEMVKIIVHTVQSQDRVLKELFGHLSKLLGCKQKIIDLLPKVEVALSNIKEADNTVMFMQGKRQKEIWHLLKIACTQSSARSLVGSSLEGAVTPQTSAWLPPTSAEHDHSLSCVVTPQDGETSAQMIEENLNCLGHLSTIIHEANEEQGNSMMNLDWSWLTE

[17] = molecular target: T3, Tyrosine-protein kinase Lck; experiment: Inhibition of human full length recombinant LCK at 500 nM by radiometric scintillation counting analysis relative to control
[18] = molecular target: T4, Tyrosine-protein kinase Lyn; experiment: Inhibition of human full length recombinant LYN at 500 nM by radiometric scintillation counting analysis relative to control
[19] = molecular target: Proto-oncogene tyrosine-protein kinase Src (Homo sapiens, UniProt P12931); experiment: Inhibition of human recombinant Src (1-530) at 500 nM by radiometric scintillation counting analysis relative to control
[20] = molecular target: Tyrosine-protein kinase JAK1 (Homo sapiens) (UniProt P23458); experiment: Inhibition of human recombinant JAK1 at 50 nM radiometric scintillation counting analysis relative to control
Tyrosine-protein kinase JAK1 (Homo sapiens), sequence (P23458 whole entry): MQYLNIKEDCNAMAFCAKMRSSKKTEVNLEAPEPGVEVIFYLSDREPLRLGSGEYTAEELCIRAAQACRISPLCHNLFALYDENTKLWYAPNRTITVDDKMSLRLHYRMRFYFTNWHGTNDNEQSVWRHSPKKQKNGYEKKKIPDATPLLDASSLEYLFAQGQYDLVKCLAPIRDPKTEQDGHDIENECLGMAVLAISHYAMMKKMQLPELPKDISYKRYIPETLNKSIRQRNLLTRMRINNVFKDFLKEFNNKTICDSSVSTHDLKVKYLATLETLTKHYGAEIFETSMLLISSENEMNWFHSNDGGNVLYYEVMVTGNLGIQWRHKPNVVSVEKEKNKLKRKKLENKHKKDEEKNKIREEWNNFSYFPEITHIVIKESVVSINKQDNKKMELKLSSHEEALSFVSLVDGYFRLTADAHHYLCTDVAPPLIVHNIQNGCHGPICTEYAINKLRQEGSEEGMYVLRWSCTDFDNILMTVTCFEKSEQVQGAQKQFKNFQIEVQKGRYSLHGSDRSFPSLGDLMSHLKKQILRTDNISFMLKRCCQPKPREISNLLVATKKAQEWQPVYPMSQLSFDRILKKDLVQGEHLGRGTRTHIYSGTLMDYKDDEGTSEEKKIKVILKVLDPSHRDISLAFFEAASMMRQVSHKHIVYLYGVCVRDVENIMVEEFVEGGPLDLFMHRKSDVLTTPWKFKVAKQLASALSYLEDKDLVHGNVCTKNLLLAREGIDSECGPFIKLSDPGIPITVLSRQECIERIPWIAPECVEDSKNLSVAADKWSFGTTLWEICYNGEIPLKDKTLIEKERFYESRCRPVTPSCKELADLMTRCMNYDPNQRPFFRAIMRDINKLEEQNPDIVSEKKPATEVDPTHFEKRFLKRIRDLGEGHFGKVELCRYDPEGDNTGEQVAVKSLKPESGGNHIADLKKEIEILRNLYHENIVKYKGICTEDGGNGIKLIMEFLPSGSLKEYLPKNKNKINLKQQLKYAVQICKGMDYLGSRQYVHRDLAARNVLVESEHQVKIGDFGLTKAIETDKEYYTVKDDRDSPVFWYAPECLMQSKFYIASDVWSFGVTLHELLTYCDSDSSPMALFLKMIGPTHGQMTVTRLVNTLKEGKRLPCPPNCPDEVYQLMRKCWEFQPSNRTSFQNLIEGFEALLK

[21] = molecular target: Tyrosine-protein kinase JAK1 (Homo sapiens) (UniProt P23458); experiment: Inhibition of human recombinant JAK1 at 500 nM radiometric scintillation counting analysis relative to control

| inhibition [1] [%] | inhibition [2] [%] | inhibition [3] [%] | inhibition [4] [%] | inhibition [5] [%] | inhibition [6] [%] | inhibition [7] [%] | inhibition [8] [%] | inhibition [9] [%] | inhibition [10] [%] | inhibition [11] [%] | inhibition [12] [%] | inhibition [13] [%] | inhibition [14] [%] | inhibition [15] [%] | inhibition [16] [%] | inhibition [17] [%] | inhibition [18] [%] | inhibition [19] [%] | SMILES | IC50 (RBL-2H3) [nM] | also measured |
| --- | --- | --- | --- | --- | --- | --- | --- | --- | --- | --- | --- | --- | --- | --- | --- | --- | --- | --- | --- | --- | --- |
| 58 | 21 | 68 | 42 | 7 | 52 | 15 | 34 | 99 | 18 | 39 | 99 | 92 | 96 | 93 | 0 | 98 | 99 | 96 | Cc1ccc(C(=O)Nc2ccc(OC(F)(F)F)cc2)cc1C#Cc1cc(-c2cnn(C)c2)cnc1N | 3.71 | inhibition [20]: 8%; inhibition [21]: -2% |
| 32 | 2 | 1 | 27 | -6 | 39 | 21 | 20 | 93 | 5 | 18 | 50 | 85 | 64 | 89 | 2 | 92 | 105 | 79 | Cc1ccc(C(=O)Nc2ccc(Cl)cc2Cl)cc1C#Cc1cc(-c2cnn(C)c2)cnc1N | > 1000 | inhibition [20]: -6%; inhibition [21]: -8% |

| SMILES | inhibition [1] [%] | inhibition [2] [%] | inhibition [3] [%] | inhibition [4] [%] | inhibition [5] [%] | inhibition [6] [%] | inhibition [7] [%] | inhibition [8] [%] | inhibition [9] [%] | inhibition [10] [%] | inhibition [11] [%] | inhibition [12] [%] | inhibition [13] [%] | inhibition [14] [%] | inhibition [15] [%] | inhibition [16] [%] | inhibition [17] [%] | inhibition [18] [%] | inhibition [19] [%] | IC50 (RBL-2H3) [nM] | also measured |
| --- | --- | --- | --- | --- | --- | --- | --- | --- | --- | --- | --- | --- | --- | --- | --- | --- | --- | --- | --- | --- | --- |
| Cc1ccc(C(=O)Nc2cc(C(F)(F)F)cc(C(F)(F)F)c2)cc1C#Cc1cc(-c2cnn(C)c2)cnc1N | 22 | 29 | 11 | 26 | 1 | 1 | -10 | 71 | 105 | 60 | 14 | 98 | 22 | 97 | 97 | 12 | 77 | 96 | 92 | 9.32 | inhibition [20]: 37%; inhibition [21]: 0% |
